Data taken from patent US9513294B2, “Megastokes amino-triazolyl-BODIPY compounds and applications to live neuron staining and human serum albumin FA1 drug site probing” (National University of Singapore, priority 2012, dated 2016).
One block for each compound: values may come before it.

How the values were obtained:
[1] = Absorbance and fluorescence emission spectra (SpectraMax M2); type: physicochemical; conditions: for λmax Abs. (nm) / λmax Em. (nm): MKAC compound library; for λmax Abs. (nm) / λmax Absorp. (nm): absorbance maximum; for λmax Em. (nm) / λmax Emission (nm): fluorescence emission maximum; for λmax Absorp. (nm) / λmax Emission (nm): MKCA compound library
Method: BDC-8 (Blue): absorbance λmax=473 nm, emission λmax=585 nm; MK101-8 (Green): absorbance λmax=474 nm, emission λmax=563 nm; MKHA374-48 (Yellow): absorbance λmax=468 nm, λem=557 nm. The corresponding spectra of a reported BODIPY (BD-27; Red) are also included for comparison: absorbance λmax=551 nm, emission λmax=568 nm. The structures of BDC-8, MK101-8, MKHA374-48 and BD-27 are also depicted.
(§1) ^1H-NMR, ^19F-NMR and ^13C-NMR spectra were recorded on Bruker ACF300 (300 MHz), DPX300 (300 MHz) and AMX500 (500 MHz) spectrometers. High resolution mass spectra (ESI) were obtained on a Finnigan/MAT 95XL-T spectrometer. Spectroscopic and quantum yield data were measured on a SpectraMax M2 spectrophotometer (Molecular Devices). Data analysis was performed using GraphPrism 5.0. Analytical characterization was performed on a HPLC-MS (Agilent-1200 series) with a DAD detector and a single quadrupole mass spectrometer (6130 series) with an ESI probe. Analytical HPLC method: eluents, A: H2O (0.1% HCOOH), B: CH3CN (0.1% HCOOH), gradient 5% B to 95% B (10 min). Reverse-phase Phenomenex C18 Luna column (4.6×50 mm^2, 3.5 […]), flow rate: 1 mL/min.

[2] = Quantum yield measurements versus Acridine Yellow in EtOH; type: physicochemical; conditions: for φ (%): quantum yield; for φ (quantum yield): excitation 460 nm
Method: as §1
Quantum yields were calculated by measuring the integrated emission area of the fluorescent spectra and comparing to the area measured for Acridine Yellow in EtOH when excited at 460 nm (Φfluorescence^AcridineYellow=0.47). Quantum yields for the amino-triazolyl-BODIPYs were calculated using the equation below, where F represents the area of fluorescent emission, η is the refractive index of the solvent, and Abs is absorbance at the excitation wavelength selected for standards and samples. Emission was integrated between 510 and 700 nm.

SMILES: CCCCCC(O)c1cn(-c2ccc3n2[B-](F)(F)[N+]2=C(NCc4ccccc4C)C=CC2=C3c2ccc(NC(C)=O)cc2)nn1 (stereo not drawn) [MKAC101-69]
λmax Abs. (nm) [1]: 461 nm | λmax Em. (nm) [1]: 562 nm | φ (%) ([2]; MKAC compound library): 24.08%

SMILES: CCOc1ccccc1CNC1=[N+]2C(=C(c3ccc(N)cc3)c3ccc(-n4cc(CC5CCCCC5)nn4)n3[B-]2(F)F)C=C1 [MK103-8]
λmax Absorp. ([1]; MK library, Table 5): 473 nm | λmax Emission ([1]; MK library, Table 5): 563 nm | φ (quantum yield) ([2]; MK library, Table 5): 1.64%

SMILES: CCCCCC(O)c1cn(-c2ccc3n2[B-](F)(F)[N+]2=C(NCc4ccccc4C)C=CC2=C3c2ccc(NC(=O)CCl)cc2)nn1 (stereo not drawn) [MKCA101-69]
λmax Absorp. (nm) [1]: 466 nm | λmax Emission (nm) [1]: 562 nm | φ (%) ([2]; MKCA compound library): 21.93%

SMILES: CN(Cc1ccccc1)C1=[N+]2C(=C(c3ccc(NC(=O)CCl)cc3)c3ccc(-n4cc(C5CC5)nn4)n3[B-]2(F)F)C=C1 [MKCA195-4]
λmax Absorp. (nm) [1]: 466 nm | λmax Emission (nm) [1]: 575 nm | φ (%) ([2]; MKCA compound library): 7.26%

SMILES: CC(=O)Nc1ccc(C2=C3C=CC(NCc4ccccc4C)=[N+]3[B-](F)(F)n3c2ccc3-n2cc(CCc3ccccc3)nn2)cc1 [MKAC101-19]
λmax Abs. (nm) [1]: 464 nm | λmax Em. (nm) [1]: 560 nm | φ (%) ([2]; MKAC compound library): 23.26%

SMILES: CC1CN(C2=[N+]3C(=C(c4ccc(N)cc4)c4ccc(-n5cc(CCc6ccccc6)nn5)n4[B-]3(F)F)C=C2)CC(C)O1 (stereo not drawn) [MK20-19]
λmax Absorp. ([1]; MK library, Table 5): 477 nm | λmax Emission ([1]; MK library, Table 5): 578 nm | φ (quantum yield) ([2]; MK library, Table 5): 0.34%

SMILES: CC(=O)Nc1ccc(C2=C3C=CC(N4CC(C)OC(C)C4)=[N+]3[B-](F)(F)n3c2ccc3-n2cc(C3CC3)nn2)cc1 (stereo not drawn) [MKAC20-4]
λmax Abs. (nm) [1]: 466 nm | λmax Em. (nm) [1]: 585 nm | φ (%) ([2]; MKAC compound library): 3.64%

SMILES: CCCc1cn(-c2ccc3n2[B-](F)(F)[N+]2=C(N4CCc5ccccc5C4)C=CC2=C3c2ccc(NC(C)=O)cc2)nn1 [MKAC66-48]
λmax Abs. (nm) [1]: 469 nm | λmax Em. (nm) [1]: 582 nm | φ (%) ([2]; MKAC compound library): 2.14%

SMILES: CCCC(C)c1cn(-c2ccc3n2[B-](F)(F)[N+]2=C(NCc4ccccc4OCC)C=CC2=C3c2ccc(NC(C)=O)cc2)nn1 (stereo not drawn) [MKAC103-3]
λmax Abs. (nm) [1]: 465 nm | λmax Em. (nm) [1]: 561 nm | φ (%) ([2]; MKAC compound library): 23.42%

The remaining lines, values ahead:

λmax Absorp. ([1]; BDCCA library, Table 4): 465 nm | λmax Emission ([1]; BDCCA library, Table 4): 587 nm | φ (quantum yield) ([2]; BDCCA library, Table 4): 0.7%
SMILES: CN(Cc1ccccc1)Cc1cn(-c2ccc3n2[B-](F)(F)[N+]2=C(N4CCCCC4)C=CC2=C3c2ccc(NC(=O)CCl)cc2)nn1 [BDCCA-18]

λmax Absorp. ([1]; BDC library, Table 2): 470 nm | λmax Emission ([1]; BDC library, Table 2): 582 nm | φ (quantum yield) ([2]; BDC library, Table 2): 0.11%
SMILES: Nc1ccc(C2=C3C=CC(N4CCCCC4)=[N+]3[B-](F)(F)n3c2ccc3-n2cc(-c3cccc(F)c3)nn2)cc1 [BDC-31]

λmax Absorp. ([1]; BDCCA library, Table 4): 467 nm | λmax Emission ([1]; BDCCA library, Table 4): 587 nm | φ (quantum yield) ([2]; BDCCA library, Table 4): 0.9%
SMILES: CCCC(C)c1cn(-c2ccc3n2[B-](F)(F)[N+]2=C(N4CCCCC4)C=CC2=C3c2ccc(NC(=O)CCl)cc2)nn1 (racemic) [BDCCA-3]

λmax Absorp. (nm) [1]: 469 nm | λmax Emission (nm) [1]: 582 nm | φ (%) ([2]; MKCA compound library): 3.05%
SMILES: O=C(CCl)Nc1ccc(C2=C3C=CC(N4CCc5ccccc5C4)=[N+]3[B-](F)(F)n3c2ccc3-n2cc(CC3CCCCC3)nn2)cc1 [MKCA66-8]

λmax Abs. (nm) [1]: 467 nm | λmax Em. (nm) [1]: 562 nm | φ (%) ([2]; MKAC compound library): 16.81%
SMILES: CC(=O)Nc1ccc(C2=C3C=CC(NCc4cc(F)cc(F)c4)=[N+]3[B-](F)(F)n3c2ccc3-n2cc(CC3CCCCC3)nn2)cc1 [MKAC412-8]

λmax Absorp. ([1]; BDCCA library, Table 4): 465 nm | λmax Emission ([1]; BDCCA library, Table 4): 568 nm | φ (quantum yield) ([2]; BDCCA library, Table 4): 1.3%
SMILES: O=C(CCl)Nc1ccc(C2=C3C=CC(N4CCCCC4)=[N+]3[B-](F)(F)n3c2ccc3-n2cc(-c3ccc(F)cc3F)nn2)cc1 [BDCCA-26]

λmax Absorp. (nm) [1]: 463 nm | λmax Emission (nm) [1]: 569 nm | φ (%) ([2]; MKCA compound library): 3.99%
SMILES: CCCC(C)c1cn(-c2ccc3n2[B-](F)(F)[N+]2=C(N4CCCC4)C=CC2=C3c2ccc(NC(=O)CCl)cc2)nn1 (stereo not drawn) [MKCA215-3]

λmax Absorp. ([1]; BDCCA library, Table 4): 464 nm | λmax Emission ([1]; BDCCA library, Table 4): 548 nm | φ (quantum yield) ([2]; BDCCA library, Table 4): 1.7%
SMILES: CCCCCc1ccc(-c2cn(-c3ccc4n3[B-](F)(F)[N+]3=C(N5CCCCC5)C=CC3=C4c3ccc(NC(=O)CCl)cc3)nn2)cc1 [BDCCA-29]

λmax Absorp. ([1]; BDCCA library, Table 4): 468 nm | λmax Emission ([1]; BDCCA library, Table 4): 589 nm | φ (quantum yield) ([2]; BDCCA library, Table 4): 0.6%
SMILES: O=C(CCl)Nc1ccc(C2=C3C=CC(N4CCCCC4)=[N+]3[B-](F)(F)n3c2ccc3-n2cc(CC3CCCCC3)nn2)cc1 [BDCCA-8]
